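Compound exposure: 48 hours, 5 concentrations, 96-well plates. Definition used: TGI = concentration required for complete inhibition of growth.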
Legend:
Test in all cases: NCI-60 cell line screen, 48 h
HOP-62 NSCLC = system: HOP-62 NSCLC
HOP-92 NSCLC = system: HOP-92 NSCLC
MDA-MB-435 = system: MDA-MB-435
MALME-3M melanoma = system: MALME-3M melanoma
HCT-15 colon = system: HCT-15 colon
MDA-N = system: MDA-N
CCRF-CEM leukemia = system: CCRF-CEM leukemia
A549 NSCLC = system: A549 NSCLC
SN12C renal = system: SN12C renal
EKVX NSCLC = system: EKVX NSCLC

CCOC(=O)C1C(=O)C=C(c2cc(C)ccc2O)CC1c1cccc(Br)c1 (centres undefined)
TGI (HOP-62 NSCLC): > 100 µM | TGI (HOP-92 NSCLC): 29.8 µM | TGI (MDA-MB-435): 8.81 µM | TGI (MALME-3M melanoma): 42.4 µM | TGI (HCT-15 colon): 10.4 µM | TGI (MDA-N): 21.2 µM | TGI (CCRF-CEM leukemia): 71.7 µM | TGI (A549 NSCLC): 51.2 µM | TGI (SN12C renal): 33.1 µM | TGI (EKVX NSCLC): 67.6 µM

O=C(O)CCCCCNC(=O)CCC(CN(CC(=O)OCc1ccccc1)CC(=O)OCc1ccccc1)N(CC(=O)OCc1ccccc1)CC(=O)OCc1ccccc1 (centres undefined)
TGI (HOP-62 NSCLC): 41 µM | TGI (HOP-92 NSCLC): 31.1 µM | TGI (MDA-MB-435): 35.4 µM | TGI (MALME-3M melanoma): 39.5 µM | TGI (HCT-15 colon): 34.6 µM | TGI (MDA-N): 34.8 µM | TGI (CCRF-CEM leukemia): 39.7 µM | TGI (A549 NSCLC): 33.2 µM | TGI (SN12C renal): 36.2 µM | TGI (EKVX NSCLC): 49 µM

O=C1CSC(c2ccc(Cl)cc2)N1c1ccc(-n2c(-c3ccccc3)nc3ccccc3c2=O)cc1 (centres undefined)
TGI (HOP-62 NSCLC): > 100 µM | TGI (HOP-92 NSCLC): > 100 µM | TGI (MDA-MB-435): > 100 µM | TGI (MALME-3M melanoma): > 100 µM | TGI (HCT-15 colon): > 100 µM | TGI (MDA-N): > 100 µM | TGI (CCRF-CEM leukemia): > 100 µM | TGI (A549 NSCLC): > 100 µM | TGI (SN12C renal): > 100 µM | TGI (EKVX NSCLC): > 100 µM

CC(C)(C)C(=O)C(C#N)C(=O)C(C)(C)C
TGI (HOP-62 NSCLC): > 100 µM | TGI (HOP-92 NSCLC): > 100 µM | TGI (MDA-MB-435): > 100 µM | TGI (MALME-3M melanoma): > 100 µM | TGI (HCT-15 colon): > 100 µM | TGI (MDA-N): > 100 µM | TGI (CCRF-CEM leukemia): > 100 µM | TGI (A549 NSCLC): > 100 µM | TGI (SN12C renal): > 100 µM | TGI (EKVX NSCLC): > 100 µM

COc1cccc(C(=O)C(O)c2cccc(OC)c2OC)c1OC (centres undefined)
TGI (HOP-62 NSCLC): > 100 µM | TGI (HOP-92 NSCLC): > 100 µM | TGI (MDA-MB-435): > 100 µM | TGI (MALME-3M melanoma): > 100 µM | TGI (HCT-15 colon): > 100 µM | TGI (MDA-N): > 100 µM | TGI (CCRF-CEM leukemia): > 100 µM | TGI (A549 NSCLC): > 100 µM | TGI (SN12C renal): > 100 µM | TGI (EKVX NSCLC): > 100 µM

COc1cc(C2c3cc4c(c(O)c3C(=O)C3CCC(=O)N32)OCO4)cc(OC)c1OC (centres undefined)
TGI (HOP-62 NSCLC): > 100 µM | TGI (HOP-92 NSCLC): 86.7 µM | TGI (MDA-MB-435): 58.9 µM | TGI (MALME-3M melanoma): > 100 µM | TGI (HCT-15 colon): > 100 µM | TGI (MDA-N): 91.9 µM | TGI (CCRF-CEM leukemia): > 100 µM | TGI (A549 NSCLC): > 100 µM | TGI (SN12C renal): > 100 µM | TGI (EKVX NSCLC): > 100 µM

O=C(c1ccccc1)c1cc(-c2ccccc2)c(-c2ccccc2)[nH]c(=O)c1=O
TGI (HOP-62 NSCLC): > 100 µM | TGI (HOP-92 NSCLC): > 100 µM | TGI (MDA-MB-435): > 100 µM | TGI (MALME-3M melanoma): > 100 µM | TGI (HCT-15 colon): > 100 µM | TGI (MDA-N): > 100 µM | TGI (CCRF-CEM leukemia): > 100 µM | TGI (A549 NSCLC): > 100 µM | TGI (SN12C renal): > 100 µM | TGI (EKVX NSCLC): > 100 µM

CCN1CCc2sc3[nH]c(=S)n(C)c(=O)c3c2C1
TGI (HOP-62 NSCLC): > 100 µM | TGI (HOP-92 NSCLC): > 100 µM | TGI (MDA-MB-435): > 100 µM | TGI (MALME-3M melanoma): > 100 µM | TGI (HCT-15 colon): > 100 µM | TGI (MDA-N): > 100 µM | TGI (CCRF-CEM leukemia): > 100 µM | TGI (A549 NSCLC): > 100 µM | TGI (SN12C renal): > 100 µM | TGI (EKVX NSCLC): > 100 µM

COC(=O)C(I(OS(=O)(=O)c1ccc(C)cc1)c1ccccc1)=P(c1ccccc1)(c1ccccc1)c1ccccc1
TGI (HOP-62 NSCLC): 36.8 µM | TGI (HOP-92 NSCLC): 35.4 µM | TGI (MDA-MB-435): 36.5 µM | TGI (MALME-3M melanoma): 21.6 µM | TGI (HCT-15 colon): > 100 µM | TGI (MDA-N): 31.5 µM | TGI (CCRF-CEM leukemia): > 100 µM | TGI (A549 NSCLC): 60.6 µM | TGI (SN12C renal): > 100 µM | TGI (EKVX NSCLC): 54.5 µM

COc1cccc2c(NNc3ccc(Cl)cc3)c3ccc([N+](=O)[O-])cc3nc12
TGI (HOP-62 NSCLC): 24.2 µM | TGI (HOP-92 NSCLC): 27.7 µM | TGI (MDA-MB-435): > 100 µM | TGI (MALME-3M melanoma): 22 µM | TGI (HCT-15 colon): 27.3 µM | TGI (MDA-N): > 100 µM | TGI (CCRF-CEM leukemia): 15.6 µM | TGI (A549 NSCLC): 28.4 µM | TGI (SN12C renal): 75.3 µM | TGI (EKVX NSCLC): 33.3 µM

Cc1[nH]c(=O)nc2c1C(=O)N(C(C)C)C(NC(C)C)S2 (centres undefined)
TGI (HOP-62 NSCLC): > 100 µM | TGI (HOP-92 NSCLC): > 100 µM | TGI (MDA-MB-435): > 100 µM | TGI (MALME-3M melanoma): > 100 µM | TGI (HCT-15 colon): > 100 µM | TGI (MDA-N): > 100 µM | TGI (CCRF-CEM leukemia): > 100 µM | TGI (A549 NSCLC): > 100 µM | TGI (SN12C renal): > 100 µM | TGI (EKVX NSCLC): > 100 µM

Cc1c2cccc-2c(N(C)C)cc2c1[nH]c1ccccc12
TGI (HOP-62 NSCLC): 15.1 µM | TGI (HOP-92 NSCLC): 3.54 µM | TGI (MDA-MB-435): 22.5 µM | TGI (MALME-3M melanoma): 10.9 µM | TGI (HCT-15 colon): 13.6 µM | TGI (MDA-N): 22.4 µM | TGI (CCRF-CEM leukemia): 12.8 µM | TGI (A549 NSCLC): 18.6 µM | TGI (SN12C renal): 20.2 µM | TGI (EKVX NSCLC): 5.05 µM

CCC(c1ccc(N(C)C)cc1)C1NC(=S)NC1=O (centres undefined)
TGI (HOP-92 NSCLC): > 100 µM | TGI (MDA-MB-435): > 100 µM | TGI (MALME-3M melanoma): > 100 µM | TGI (HCT-15 colon): > 100 µM | TGI (MDA-N): > 100 µM | TGI (CCRF-CEM leukemia): > 100 µM | TGI (A549 NSCLC): > 100 µM | TGI (SN12C renal): > 100 µM | TGI (EKVX NSCLC): > 100 µM

Cc1ccc(-c2cn3c(nc4ccccc43)c(C)n2)cc1
TGI (HOP-62 NSCLC): > 100 µM | TGI (HOP-92 NSCLC): 98.1 µM | TGI (MDA-MB-435): 97 µM | TGI (MALME-3M melanoma): > 67.8 µM | TGI (HCT-15 colon): > 100 µM | TGI (MDA-N): > 100 µM | TGI (CCRF-CEM leukemia): > 100 µM | TGI (A549 NSCLC): > 100 µM | TGI (SN12C renal): > 100 µM | TGI (EKVX NSCLC): > 100 µM

O=C1NC(N2CCCC(CO)C2)=N/C1=C\c1ccc(O)cc1 (centres undefined)
TGI (HOP-62 NSCLC): > 100 µM | TGI (HOP-92 NSCLC): > 100 µM | TGI (MDA-MB-435): > 100 µM | TGI (MALME-3M melanoma): > 100 µM | TGI (HCT-15 colon): > 100 µM | TGI (MDA-N): > 100 µM | TGI (CCRF-CEM leukemia): > 100 µM | TGI (A549 NSCLC): > 100 µM | TGI (SN12C renal): > 100 µM | TGI (EKVX NSCLC): > 100 µM

COc1ccc(/C=N/NC(=O)c2ccccc2Nc2ccccc2C(=O)N/N=C/c2ccc(OC)c(OC)c2)cc1OC
TGI (HOP-62 NSCLC): > 100 µM | TGI (HOP-92 NSCLC): > 100 µM | TGI (MDA-MB-435): > 100 µM | TGI (MALME-3M melanoma): > 100 µM | TGI (HCT-15 colon): > 100 µM | TGI (MDA-N): > 100 µM | TGI (CCRF-CEM leukemia): > 100 µM | TGI (A549 NSCLC): > 100 µM | TGI (SN12C renal): > 100 µM | TGI (EKVX NSCLC): > 100 µM

CC(C)NC(=O)OCc1c(COC(=O)NC(C)C)c(-c2ccc[n+](COC(=O)C3CCCCC3)c2)n2c1CCC2
TGI (HOP-62 NSCLC): > 100 µM | TGI (HOP-92 NSCLC): > 100 µM | TGI (MDA-MB-435): > 100 µM | TGI (MALME-3M melanoma): > 100 µM | TGI (HCT-15 colon): > 100 µM | TGI (MDA-N): > 100 µM | TGI (CCRF-CEM leukemia): > 100 µM | TGI (A549 NSCLC): > 100 µM | TGI (SN12C renal): > 100 µM | TGI (EKVX NSCLC): > 100 µM

Reference: PubChem BioAssay (NCI)
